Measurements: ChEMBL document CHEMBL2029210, “Synthesis of constrained benzocinnolinone analogues of CEP-26401 (irdabisant) as potent, selective histamine H3 receptor inverse agonists” (Bioorg Med Chem Lett, 2012)

Experiments:
[1] = target: T1, Histamine H3 receptor (Homo sapiens, UniProt Q9Y5N1); assay: Displacement of [3H]NAMH from human histamine H3 receptor expressed in CHO cell membrane; format: cell membranes
[2] = target: Histamine H3 receptor (Rattus norvegicus, UniProt Q9QYN8); assay: Displacement of [3H]NAMH from rat histamine H3 receptor expressed in CHO cell membrane; format: cell membranes
[3] = species on record: Homo sapiens; assay: Selectivity ratio of Ki for human H4 receptor to Ki for human H3 receptor
[4] = target: Histamine H4 receptor (Homo sapiens) (UniProt Q9H3N8); assay: Binding affinity to human histamine H4 receptor at 10 uM by radioligand binding assay
[5] = target: Histamine H2 receptor (Homo sapiens) (UniProt P25021); assay: Binding affinity to human histamine H2 receptor at 10 uM by radioligand binding assay
[6] = target: Histamine H1 receptor (Homo sapiens) (UniProt P35367); assay: Binding affinity to human histamine H1 receptor at 10 uM by radioligand binding assay
[7] = species on record: Homo sapiens; assay: Selectivity ratio of Ki for human H1 receptor to Ki for human H3 receptor
[8] = species on record: Homo sapiens; assay: Selectivity ratio of Ki for human H2 receptor to Ki for human H3 receptor
[9] = Cmax in rat at 5 mg/kg, po; format: ADME, organism-based; design: dose 5 mg/kg, route oral; settings: in vivo
[10] = Oral bioavailability in rat at 5 mg/kg; format: ADME, organism-based; settings: in vivo
[11] = Ratio of drug uptake in brain to plasma in rat at 5 mg/kg, po; format: ADME, organism-based; design: dose 5 mg/kg, route oral; settings: read-out: BPR
[12] = AUC in rat at 5 mg/kg, po; format: ADME, organism-based; design: dose 5 mg/kg, route oral; settings: plasma
[13] = tested on: Rattus norvegicus; assay: (§1) Volume of distribution in rat at 1 mg/kg, iv; format: ADME, organism-based; design: dose 1 mg/kg, route intravenous; settings: in vivo
[14] = Drug uptake in rat brain at 5 mg/kg, po after 6 hrs; format: ADME, organism-based; design: dose 5 mg/kg, route oral; settings: read-out: Drug uptake
[15] = tested on: Rattus norvegicus; assay: (§2) Half life in rat at 1 mg/kg, iv; format: ADME, organism-based; design: dose 1 mg/kg, route intravenous; settings: in vivo
[16] = target: hERG (KCNH2) (Homo sapiens, UniProt Q12809); assay: Displacement of astemizole from human ERG at 10 uM; settings: probe astemizole
[17] = target: T2, Cytochrome P450 1A2 (Homo sapiens, UniProt P05177); assay: Inhibition of CYP1A2; format: ADME
T2 sequence (P05177 whole entry): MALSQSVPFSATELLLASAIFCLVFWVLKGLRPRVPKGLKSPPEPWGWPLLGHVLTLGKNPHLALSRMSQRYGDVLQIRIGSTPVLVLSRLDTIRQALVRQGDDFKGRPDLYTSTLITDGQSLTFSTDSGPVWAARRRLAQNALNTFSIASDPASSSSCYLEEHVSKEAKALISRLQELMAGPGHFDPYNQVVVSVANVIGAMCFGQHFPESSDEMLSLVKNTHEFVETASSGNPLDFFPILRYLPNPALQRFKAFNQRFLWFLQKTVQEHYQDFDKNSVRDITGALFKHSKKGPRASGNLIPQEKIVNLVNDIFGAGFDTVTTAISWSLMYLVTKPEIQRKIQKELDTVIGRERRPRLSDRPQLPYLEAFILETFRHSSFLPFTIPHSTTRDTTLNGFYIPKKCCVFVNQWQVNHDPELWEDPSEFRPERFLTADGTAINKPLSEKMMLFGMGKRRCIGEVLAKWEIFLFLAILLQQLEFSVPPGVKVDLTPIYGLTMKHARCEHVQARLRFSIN

[18] = as §1; format: ADME, organism-based; design: dose 1 mg/kg, route intravenous; settings: in vivo
[19] = target: T1, Histamine H3 receptor; assay: Inverse agonist activity at human H3 receptor by [35S]GTPgamma binding assay; format: functional
[20] = target: Cytochrome P450 3A4 (Homo sapiens, UniProt P08684); assay: Inhibition of CYP3A4; format: ADME
[21] = target: Cytochrome P450 2C9 (Homo sapiens, UniProt P11712); assay: Inhibition of CYP2C9; format: ADME
[22] = as §2; format: ADME, organism-based; design: dose 1 mg/kg, route intravenous; settings: in vivo
[23] = target: Cytochrome P450 2C19 (Homo sapiens, UniProt P33261); assay: Inhibition of CYP2C19; format: ADME
[24] = target: Cytochrome P450 2D6 (Homo sapiens, UniProt P10635); assay: Inhibition of CYP2D6; format: ADME
[25] = Clearance in rat at 1 mg/kg, iv; format: ADME, organism-based; design: dose 1 mg/kg, route intravenous; settings: in vivo

Sequence of Histamine H4 receptor (Homo sapiens) (Q9H3N8 whole entry): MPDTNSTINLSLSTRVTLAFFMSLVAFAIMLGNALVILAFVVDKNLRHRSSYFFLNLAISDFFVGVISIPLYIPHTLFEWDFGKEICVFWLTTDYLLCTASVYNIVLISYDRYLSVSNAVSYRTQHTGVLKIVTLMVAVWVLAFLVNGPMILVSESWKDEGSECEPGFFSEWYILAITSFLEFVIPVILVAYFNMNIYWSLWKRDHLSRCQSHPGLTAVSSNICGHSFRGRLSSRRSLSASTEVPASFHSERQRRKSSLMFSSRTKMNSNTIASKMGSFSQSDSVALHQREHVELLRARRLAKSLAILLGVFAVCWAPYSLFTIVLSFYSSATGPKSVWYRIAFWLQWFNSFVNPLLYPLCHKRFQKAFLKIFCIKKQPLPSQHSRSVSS
Sequence of Histamine H2 receptor (Homo sapiens) (P25021 whole entry): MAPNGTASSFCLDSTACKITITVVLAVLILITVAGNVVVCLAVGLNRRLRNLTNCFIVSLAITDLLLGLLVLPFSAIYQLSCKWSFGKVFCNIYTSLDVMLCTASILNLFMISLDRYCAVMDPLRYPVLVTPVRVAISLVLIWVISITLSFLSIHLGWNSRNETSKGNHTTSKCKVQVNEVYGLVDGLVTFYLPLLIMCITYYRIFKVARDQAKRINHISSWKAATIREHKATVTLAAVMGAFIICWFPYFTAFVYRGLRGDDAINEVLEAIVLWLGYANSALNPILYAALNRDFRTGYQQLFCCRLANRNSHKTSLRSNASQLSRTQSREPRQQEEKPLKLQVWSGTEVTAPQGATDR
Sequence of Histamine H3 receptor (Rattus norvegicus, UniProt Q9QYN8) (Q9QYN8 whole entry): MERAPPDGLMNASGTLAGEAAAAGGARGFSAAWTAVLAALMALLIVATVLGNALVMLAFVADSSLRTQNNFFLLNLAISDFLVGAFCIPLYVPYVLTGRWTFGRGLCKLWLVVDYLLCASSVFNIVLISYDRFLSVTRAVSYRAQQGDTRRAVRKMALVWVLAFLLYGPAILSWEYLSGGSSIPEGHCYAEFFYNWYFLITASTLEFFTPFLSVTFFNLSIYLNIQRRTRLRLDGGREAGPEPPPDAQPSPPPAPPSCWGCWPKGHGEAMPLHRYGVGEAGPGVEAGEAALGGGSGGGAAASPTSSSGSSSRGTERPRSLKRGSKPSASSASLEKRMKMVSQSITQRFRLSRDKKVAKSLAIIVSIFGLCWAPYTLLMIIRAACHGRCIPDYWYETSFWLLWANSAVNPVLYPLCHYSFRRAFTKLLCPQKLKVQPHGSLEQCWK
T1 sequence (Q9Y5N1 whole entry): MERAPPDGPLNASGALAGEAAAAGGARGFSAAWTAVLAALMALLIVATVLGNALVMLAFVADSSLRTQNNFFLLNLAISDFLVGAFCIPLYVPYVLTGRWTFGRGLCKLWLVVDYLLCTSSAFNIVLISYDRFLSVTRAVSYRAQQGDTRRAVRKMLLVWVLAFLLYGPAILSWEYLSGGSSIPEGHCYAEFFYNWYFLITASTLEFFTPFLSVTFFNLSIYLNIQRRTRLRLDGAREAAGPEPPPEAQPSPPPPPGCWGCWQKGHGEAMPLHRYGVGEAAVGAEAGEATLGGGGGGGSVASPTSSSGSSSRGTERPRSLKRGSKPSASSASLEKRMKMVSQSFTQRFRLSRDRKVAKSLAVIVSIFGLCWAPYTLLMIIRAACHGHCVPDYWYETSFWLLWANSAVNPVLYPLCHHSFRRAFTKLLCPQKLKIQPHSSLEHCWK
Sequence of Histamine H1 receptor (Homo sapiens) (P35367 whole entry): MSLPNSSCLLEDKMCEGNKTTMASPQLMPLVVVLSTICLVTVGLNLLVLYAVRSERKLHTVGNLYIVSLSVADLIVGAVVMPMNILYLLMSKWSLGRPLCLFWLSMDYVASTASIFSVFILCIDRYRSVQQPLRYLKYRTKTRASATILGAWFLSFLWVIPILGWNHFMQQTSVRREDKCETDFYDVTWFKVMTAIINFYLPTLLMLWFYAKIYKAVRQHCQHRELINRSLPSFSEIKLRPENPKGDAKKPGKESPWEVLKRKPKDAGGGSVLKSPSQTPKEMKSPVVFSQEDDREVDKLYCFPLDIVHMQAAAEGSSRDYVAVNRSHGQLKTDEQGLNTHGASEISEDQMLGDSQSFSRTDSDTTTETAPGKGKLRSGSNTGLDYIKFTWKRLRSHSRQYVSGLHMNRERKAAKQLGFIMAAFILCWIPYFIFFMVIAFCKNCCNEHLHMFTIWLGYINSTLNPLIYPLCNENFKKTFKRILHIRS
Sequence of hERG (KCNH2) (Q12809 whole entry): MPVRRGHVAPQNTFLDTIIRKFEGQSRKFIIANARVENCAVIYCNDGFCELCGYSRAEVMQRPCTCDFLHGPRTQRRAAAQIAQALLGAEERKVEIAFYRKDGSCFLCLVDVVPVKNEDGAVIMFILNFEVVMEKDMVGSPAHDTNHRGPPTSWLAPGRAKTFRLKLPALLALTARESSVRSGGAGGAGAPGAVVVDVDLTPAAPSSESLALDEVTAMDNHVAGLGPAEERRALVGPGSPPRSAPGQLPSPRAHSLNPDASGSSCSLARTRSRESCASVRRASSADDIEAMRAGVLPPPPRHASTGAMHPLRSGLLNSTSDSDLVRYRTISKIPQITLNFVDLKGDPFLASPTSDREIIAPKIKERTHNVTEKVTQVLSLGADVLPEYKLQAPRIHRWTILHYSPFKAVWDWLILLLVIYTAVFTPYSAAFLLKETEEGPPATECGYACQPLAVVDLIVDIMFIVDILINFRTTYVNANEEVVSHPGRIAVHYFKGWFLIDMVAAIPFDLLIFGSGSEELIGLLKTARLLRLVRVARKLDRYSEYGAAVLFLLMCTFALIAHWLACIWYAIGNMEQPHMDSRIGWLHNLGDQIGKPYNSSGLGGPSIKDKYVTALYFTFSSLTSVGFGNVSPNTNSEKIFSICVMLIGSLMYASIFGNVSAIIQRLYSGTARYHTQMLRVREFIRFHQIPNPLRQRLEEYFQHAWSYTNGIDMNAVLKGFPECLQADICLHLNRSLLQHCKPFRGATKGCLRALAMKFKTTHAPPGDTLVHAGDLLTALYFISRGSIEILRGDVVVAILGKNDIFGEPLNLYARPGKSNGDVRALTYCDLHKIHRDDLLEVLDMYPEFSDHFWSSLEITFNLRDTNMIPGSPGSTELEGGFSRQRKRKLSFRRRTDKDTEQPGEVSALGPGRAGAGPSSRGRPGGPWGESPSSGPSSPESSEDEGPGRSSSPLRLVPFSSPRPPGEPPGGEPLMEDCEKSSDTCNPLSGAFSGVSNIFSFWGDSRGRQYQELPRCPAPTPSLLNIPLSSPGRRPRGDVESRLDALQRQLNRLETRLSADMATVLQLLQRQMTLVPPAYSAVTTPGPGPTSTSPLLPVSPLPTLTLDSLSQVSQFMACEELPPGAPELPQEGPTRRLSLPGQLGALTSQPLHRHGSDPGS
Sequence of Cytochrome P450 2C9 (P11712 whole entry): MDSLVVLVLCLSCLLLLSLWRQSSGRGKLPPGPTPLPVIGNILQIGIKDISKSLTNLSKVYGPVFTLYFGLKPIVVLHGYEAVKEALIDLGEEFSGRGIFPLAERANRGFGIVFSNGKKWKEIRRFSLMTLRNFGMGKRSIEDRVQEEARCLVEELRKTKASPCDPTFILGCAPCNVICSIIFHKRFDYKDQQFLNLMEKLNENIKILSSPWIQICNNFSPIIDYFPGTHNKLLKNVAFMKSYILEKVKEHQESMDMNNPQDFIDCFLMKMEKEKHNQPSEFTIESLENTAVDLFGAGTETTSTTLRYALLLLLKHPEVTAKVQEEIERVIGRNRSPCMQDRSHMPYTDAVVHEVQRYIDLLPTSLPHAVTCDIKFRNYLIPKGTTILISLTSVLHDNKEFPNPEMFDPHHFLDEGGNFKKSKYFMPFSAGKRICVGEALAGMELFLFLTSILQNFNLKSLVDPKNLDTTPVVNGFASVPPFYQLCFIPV
Sequence of Cytochrome P450 2D6 (P10635 whole entry): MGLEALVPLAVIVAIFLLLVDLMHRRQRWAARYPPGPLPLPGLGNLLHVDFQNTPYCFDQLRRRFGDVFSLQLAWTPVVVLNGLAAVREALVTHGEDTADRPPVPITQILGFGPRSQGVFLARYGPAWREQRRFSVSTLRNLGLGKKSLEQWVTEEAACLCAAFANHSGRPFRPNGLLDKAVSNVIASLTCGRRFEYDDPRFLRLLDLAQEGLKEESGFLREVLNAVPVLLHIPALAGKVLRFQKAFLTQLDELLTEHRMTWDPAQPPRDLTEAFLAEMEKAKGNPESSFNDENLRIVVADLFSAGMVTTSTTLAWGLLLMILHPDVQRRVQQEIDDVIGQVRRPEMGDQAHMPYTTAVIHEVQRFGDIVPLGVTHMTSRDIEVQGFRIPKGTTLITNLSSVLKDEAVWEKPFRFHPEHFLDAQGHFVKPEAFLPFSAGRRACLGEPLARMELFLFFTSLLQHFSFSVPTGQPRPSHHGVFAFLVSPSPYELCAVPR
Sequence of Cytochrome P450 2C19 (P33261 whole entry): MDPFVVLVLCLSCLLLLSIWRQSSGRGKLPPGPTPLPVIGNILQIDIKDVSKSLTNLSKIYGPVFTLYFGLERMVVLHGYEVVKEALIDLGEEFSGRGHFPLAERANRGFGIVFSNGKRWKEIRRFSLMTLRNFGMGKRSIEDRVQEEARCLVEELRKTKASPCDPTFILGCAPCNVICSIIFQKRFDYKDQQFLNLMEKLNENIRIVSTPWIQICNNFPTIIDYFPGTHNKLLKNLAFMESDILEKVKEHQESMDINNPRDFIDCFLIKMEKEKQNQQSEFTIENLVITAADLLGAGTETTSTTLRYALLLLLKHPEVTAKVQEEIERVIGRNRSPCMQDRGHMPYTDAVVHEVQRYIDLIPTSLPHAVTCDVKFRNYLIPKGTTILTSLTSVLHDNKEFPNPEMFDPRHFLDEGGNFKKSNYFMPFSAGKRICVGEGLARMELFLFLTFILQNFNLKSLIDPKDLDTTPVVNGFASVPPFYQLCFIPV

O=c1cc2c(nn1Cc1ccccc1)-c1ccc(OCCCN3CCCCC3)cc1CC2
Ki [1]: 0.105 µM | Ki [2]: 0.14 µM

C[C@@H]1CCCN1CCCOc1ccc2c(c1)CCc1cc(=O)n(-c3ccccc3)nc1-2
Ki [1]: 0.016 µM | Ki [2]: 0.023 µM

CC(C)n1nc2c(cc1=O)CCc1cc(OCCCN3CCC[C@H]3C)ccc1-2
Ratio Ki [3]: > 1000 | Ki [1]: 0.0042 µM | inhibition [4]: < 40% | inhibition [5]: < 40% | Ki [2]: 0.017 µM | inhibition [6]: < 40% | Ratio Ki [7]: > 1000 | Ratio Ki [8]: > 1000

O=C1CC2CCc3cc(OC4CCN(C5CCC5)CC4)ccc3C2=NN1 (racemic)
Cmax [9]: 0.075 µg/mL | bioavailability [10]: 44% | Kp [11]: 5.2 | Ki [1]: 0.017 µM | AUC [12]: 0.468 µg·h/mL | Vd [13]: 6.6 L/kg | concentration at 6 h [14]: 0.78 µM | Ki [2]: 0.026 µM | t1/2 [15]: 54 min

C[C@@H]1CCCN1CCCOc1ccc2c(c1)CCc1cc(=O)n(C)nc1-2
Cmax [9]: 0.024 µg/mL | inhibition at 10 µM [16]: 34% | Ratio Ki [3]: > 1000 | IC50 [17]: > 30 µM | bioavailability [10]: 3% | Ki [1]: 0.0036 µM | inhibition [4]: < 40% | inhibition [5]: < 40% | AUC [12]: 0.08 µg·h/mL | Vd [18]: 1.3 L/kg | EC50 [19]: 0.0017 µM | IC50 [20]: > 30 µM | Ki [2]: 0.0083 µM | inhibition [6]: < 40% | IC50 [21]: > 30 µM | Ratio Ki [7]: > 1000 | half-life [22]: 24 min | IC50 [23]: > 30 µM | IC50 [24]: > 30 µM | Ratio Ki [8]: > 1000 | clearance [25]: 2.16 L/h/kg

C[C@@H]1CCCN1CCCOc1ccc2c(c1)CCC1CC(=O)NN=C21 (mixture of isomers)
Cmax [9]: 0.027 µg/mL | bioavailability [10]: 11% | Ki [1]: 0.015 µM | AUC [12]: 0.096 µg·h/mL | Vd [18]: 6 L/kg | Ki [2]: 0.053 µM | half-life [22]: 42 min | clearance [25]: 5.58 L/h/kg

C[C@@H]1CCCN1CCCOc1ccc2c(c1)CCc1n[nH]c(=O)cc1-2
Ki [1]: 0.0062 µM | inhibition [4]: < 45% | inhibition [5]: < 45% | Ki [2]: 0.019 µM | inhibition [6]: < 45%

C[C@@H]1CCCN1CCCOc1ccc2c(c1)CCc1cc(=O)[nH]nc1-2
Cmax [9]: 0.034 µg/mL | Ratio Ki [3]: > 1000 | bioavailability [10]: 2% | Ki [1]: 0.0043 µM | inhibition [4]: < 40% | inhibition [5]: < 40% | AUC [12]: 0.191 µg·h/mL | Vd [18]: 1.2 L/kg | Ki [2]: 0.014 µM | inhibition [6]: < 40% | Ratio Ki [7]: > 1000 | half-life [22]: 84 min | Ratio Ki [8]: > 1000 | clearance [25]: 0.66 L/h/kg
